# Experimental data published in patent publication US20250236616A1, “IMMUNOMODULATING AZALIDES” (Zoetis Services LLC, priority 2021, published 2025).
# Experiments:
# TNF-α = experiment: Whole bovine blood assay, LPS-induced TNF-α; type: cell-based; conditions: fresh whole bovine blood, LPS stimulant; top drug concentration 250 μM
# Protocol: Whole Blood Assay-Fresh whole bovine blood samples were collected into heparinized vacutainer tubes. Assay plates were prepared with 25 μL of drug diluted in PBS at varying concentration in 96 round bottom wells, then 225 μL of blood was added and plates incubated at 37° C. for 4 hours. Cells were stimulated with LPS (or PBS for controls) by adding 25 μL to the plates at a final concentration of 1 μg/mL and incubated at 37° C. for 18 hours. To collect plasma, plates were centrifuged at 2,000×g for 10 minutes and 100 μL of supernatant was transferred to a 96 well polypropylene plate that was sealed and stored at −80° C. Samples were assayed for cytokines using the Meso Scale Discovery (MSD) platform (described below). This same MSD platform was used to assess cytokines in the plasma collected directly from drug treated animals.
# Cytokine Detection—An MSD U-Plex cytokine assay was developed following the MSD U-Plex protocol guide and included biotinylated capture antibodies against: bovine Interleukin (IL)-1β (Biorad), bovine IL-6 (R&D Systems) and bovine tumor necrosis factor (TNF)-α (R&D Systems). […] Assay calibrators (Kingfisher) were diluted to a concentration of […] in control lithium heparin plasma, followed by 4-fold serial dilutions into plasma. […] Antibodies were used at the following concentrations: anti-IL-1β at 1 μg/mL, anti-IL-6 at 1 μg/mL and anti-TNF-α at 0.5 μg/mL. Cytokines were quantified according to manufacturer's instructions using a chemiluminescent readout. In brief, 0.5 mL of all biotinylated antibodies were diluted to 10 μg/mL with Diluent 100 and paired to their respective linkers by adding 750 μL of supplied Linker solution and incubated for 30 minutes followed by addition of Stop solution for another 30 minutes. The linked antibodies were then diluted 10-fold into Stop solution. Plates were coated by adding 50 μL of antibody solutions per well and incubated covered and shaking for 1 hour at room temperature. Plates were washed three times with PBS/Tween20 prior to samples or standards being added at 30 μL per well and incubated as above. Plates were washed three times before detection antibodies were added along with 2% goat and rabbit serum to block and incubated same as above. Plates were washed a further three times before addition of 150 μL 2X Read buffer and read immediately on the SI6000 instrument (MSD). For soluble protein levels, a BCA protein kit (Thermofisher) was used. The cytokine concentrations (pg/mL) were normalized to the total protein levels for each sample. [Bassel et. al., BMC Veterinary Research (2020) 16:168]
# Therefore, a fresh whole bovine blood assay was developed with LPS as a stimulant (TLR-4 agonist) and with IL-1β and TNF-α as the read-out. Compounds of the invention were evaluated against a positive control for their ability to inhibit LPS-induced IL-1β and TNF-α as an overall evaluation of relative potency and modulation of target pathways.
# TNFα is a cell signaling protein, cytokine, that plays a key role in both acute and chronic inflammation. In the bovine whole blood in vitro screening assay the inhibition of TNFα as induced by stimulation by lipopolysaccharide (LPS) and as measured by half the maximal inhibitory concentration (IC50) is recognized as the primary biomarker of immunomodulation potency upon pretreatment with the compounds of the invention. IL-1 B is a mediator of the inflammation response and is involved in a number of cellular activities including proliferation, differentiation and apoptosis. IL-1ß is also released upon cellular stress or cytotoxicity or upon TLR stimulation. […] In order to estimate a therapeutic index from the in vitro assay a differential between the TNFα IC50 (immunomodulation potency) versus the perceived cellular toxicity concentration (IL-1β release or overstimulation) was utilized.
# IL-6 = experiment: Whole bovine blood assay, LPS-induced IL-6; type: cell-based; conditions: fresh whole bovine blood, LPS stimulant; top drug concentration 250 μM
IC50 (TNF-α) [µM],IC50 (IL-6) [µM],SMILES
45,10,CCCNC[C@]1(O)[C@H](C)O[C@@H](O[C@H]2[C@H](C)[C@@H](O[C@@H]3O[C@H](C)C[C@H](N(C)S(=O)(=O)c4cnc5ccccn45)[C@H]3Oc3ccc(OC)cc3)[C@](C)(O)C[C@@H](C)CN[C@H](C)[C@@H](O)[C@](C)(O)[C@@H](CC)OC(=O)[C@@H]2C)C[C@@]1(C)OC [Example B-118]
–,5,CCCNC[C@]1(O)[C@H](C)O[C@@H](O[C@H]2[C@H](C)[C@@H](O[C@@H]3O[C@H](C)C[C@H](N(C)S(=O)(=O)c4nccn4C)[C@H]3Oc3ccc(F)cc3C)[C@](C)(O)C[C@@H](C)CN[C@H](C)[C@@H](O)[C@](C)(O)[C@@H](CC)OC(=O)[C@@H]2C)C[C@@]1(C)OC [Example B-121]
–,23,CC[C@H]1OC(=O)[C@H](C)[C@@H](O[C@H]2C[C@@](C)(OC)[C@](O)(CNCCS(=O)(=O)c3ccccc3)[C@H](C)O2)[C@H](C)[C@@H](O[C@@H]2O[C@H](C)C[C@H](N(C)S(=O)(=O)Nc3ccc(C(F)(F)F)cc3)[C@H]2O)[C@](C)(O)C[C@@H](C)CN[C@H](C)[C@@H](O)[C@]1(C)O [Example B-128]
7,4,CC[C@H]1OC(=O)[C@H](C)[C@@H](O[C@H]2C[C@@](C)(OC)[C@](O)(CNCc3ccccc3)[C@H](C)O2)[C@H](C)[C@@H](O[C@@H]2O[C@H](C)C[C@H](N(C)S(=O)(=O)c3nccn3C)[C@H]2Oc2ccc(F)cc2)[C@](C)(O)C[C@@H](C)CN[C@H](C)[C@@H](O)[C@]1(C)O [Example B-141]
8,–,CC[C@H]1OC(=O)[C@H](C)[C@@H](O[C@H]2C[C@@](C)(OC)[C@](O)(CN3CCCCC3)[C@H](C)O2)[C@H](C)[C@@H](O[C@@H]2O[C@H](C)C[C@H](N(C)S(=O)(=O)Nc3ccc(Cl)c(C(F)(F)F)c3)[C@H]2O)[C@](C)(O)C[C@@H](C)CN[C@H](C)[C@@H](O)[C@]1(C)O [Example C-31]
–,4,CC[C@H]1OC(=O)[C@H](C)[C@@H](O[C@H]2C[C@@](C)(OC)[C@](O)(CN3CCCCC3)[C@H](C)O2)[C@H](C)[C@@H](O[C@@H]2O[C@H](C)C[C@H](N(CC(C)C)S(=O)(=O)c3ccc(OC)cc3)[C@H]2O)[C@](C)(O)C[C@@H](C)CN[C@H](C)[C@@H](O)[C@]1(C)O [Example C-43]
–,4,CC[C@H]1OC(=O)[C@H](C)[C@@H](O[C@H]2C[C@@](C)(OC)[C@](O)(CN3CCCCC3)[C@H](C)O2)[C@H](C)[C@@H](O[C@@H]2O[C@H](C)C[C@H](N(C)S(=O)(=O)c3ccc(S(F)(F)(F)(F)F)cc3)[C@H]2O)[C@](C)(O)C[C@@H](C)CN[C@H](C)[C@@H](O)[C@]1(C)O [Example C-47]
9,–,CC[C@H]1OC(=O)[C@H](C)[C@@H](O[C@H]2C[C@@](C)(OC)[C@](O)(CN3CCCCC3)[C@H](C)O2)[C@H](C)[C@@H](O[C@@H]2O[C@H](C)C[C@H](N(C)S(=O)(=O)Nc3ccccc3)[C@H]2Oc2ccc(F)cc2)[C@](C)(O)C[C@@H](C)CN[C@H](C)[C@@H](O)[C@]1(C)O [Example C-51]
15,–,CC[C@H]1OC(=O)[C@H](C)[C@@H](O[C@H]2C[C@@](C)(OC)[C@](O)(CN3CCCCC3)[C@H](C)O2)[C@H](C)[C@@H](O[C@@H]2O[C@H](C)C[C@H](N(C)S(=O)(=O)Nc3ccccc3)[C@H]2Oc2ccccc2)[C@](C)(O)C[C@@H](C)CN[C@H](C)[C@@H](O)[C@]1(C)O [Example C-52]

# The next lines start with the compound.
SMILES,IC50 (TNF-α) [µM],IC50 (IL-6) [µM]
CC[C@H]1OC(=O)[C@H](C)[C@@H](O)[C@H](C)[C@@H](O[C@H]2O[C@@H](C)C[C@@H](N(C)S(=O)(=O)Nc3ccccc3)[C@@H]2Oc2ccc(F)cc2)[C@](C)(O)C[C@@H](C)CN[C@H](C)[C@@H](O)[C@]1(C)O [Example A-37],19,46
CC[C@H]1OC(=O)[C@H](C)[C@@H](O[C@H]2C[C@@](C)(OC)[C@](O)(CNCCC(C)C)[C@H](C)O2)[C@H](C)[C@@H](O[C@@H]2O[C@H](C)C[C@H](N(C)S(=O)(=O)c3ccc(Cl)cc3)[C@H]2O)[C@](C)(O)C[C@@H](C)CN[C@H](C)[C@@H](O)[C@]1(C)O [Example B-21],5,6
CC[C@H]1OC(=O)[C@H](C)[C@@H](O[C@H]2C[C@@](C)(OC)[C@](O)(CNCc3ccc(C(F)(F)F)cc3)[C@H](C)O2)[C@H](C)[C@@H](O[C@@H]2O[C@H](C)C[C@H](N(C)S(=O)(=O)c3ccc(Cl)cc3)[C@H]2O)[C@](C)(O)C[C@@H](C)CN[C@H](C)[C@@H](O)[C@]1(C)O [Example B-25],5,17
CC[C@H]1OC(=O)[C@H](C)[C@@H](O[C@H]2C[C@@](C)(OC)[C@](O)(CNc3ccc(OC)cc3)[C@H](C)O2)[C@H](C)[C@@H](O[C@@H]2O[C@H](C)C[C@H](N(C)S(=O)(=O)c3ccc(Cl)cc3)[C@H]2O)[C@](C)(O)C[C@@H](C)CN[C@H](C)[C@@H](O)[C@]1(C)O [Example B-27],17,33
CC[C@H]1OC(=O)[C@H](C)[C@@H](O[C@H]2C[C@@](C)(OC)[C@](O)(CNCc3cscn3)[C@H](C)O2)[C@H](C)[C@@H](O[C@@H]2O[C@H](C)C[C@H](N(C)S(=O)(=O)c3ccc(Cl)cc3)[C@H]2O)[C@](C)(O)C[C@@H](C)CN[C@H](C)[C@@H](O)[C@]1(C)O [Example B-37],8,13
CCCNC[C@]1(O)[C@H](C)O[C@@H](O[C@H]2[C@H](C)[C@@H](O[C@@H]3O[C@H](C)C[C@H](N(C)S(=O)(=O)N(C)c4ccc(F)cc4)[C@H]3O)[C@](C)(O)C[C@@H](C)CN[C@H](C)[C@@H](O)[C@](C)(O)[C@@H](CC)OC(=O)[C@@H]2C)C[C@@]1(C)OC [Example B-61],37,71
CCCNC[C@]1(O)[C@H](C)O[C@@H](O[C@H]2[C@H](C)[C@@H](O[C@@H]3O[C@H](C)C[C@H](N(C)S(=O)(=O)c4ccccc4NC4CC4)[C@H]3O)[C@](C)(O)C[C@@H](C)CN[C@H](C)[C@@H](O)[C@](C)(O)[C@@H](CC)OC(=O)[C@@H]2C)C[C@@]1(C)OC [Example B-63],9,10
CC[C@H]1OC(=O)[C@H](C)[C@@H](O[C@H]2C[C@@](C)(OC)[C@](O)(CNC3CCCCC3)[C@H](C)O2)[C@H](C)[C@@H](O[C@@H]2O[C@H](C)C[C@H](N(C)S(=O)(=O)Nc3ccc(C(F)(F)F)cc3)[C@H]2O)[C@](C)(O)C[C@@H](C)CN[C@H](C)[C@@H](O)[C@]1(C)O [Example B-69],–,16
CC[C@H]1OC(=O)[C@H](C)[C@@H](O[C@H]2C[C@@](C)(OC)[C@](O)(CNC3CC3)[C@H](C)O2)[C@H](C)[C@@H](O[C@@H]2O[C@H](C)C[C@H](N(C)S(=O)(=O)Nc3ccc(C(F)(F)F)cc3)[C@H]2O)[C@](C)(O)C[C@@H](C)CN[C@H](C)[C@@H](O)[C@]1(C)O [Example B-70],4,13
CC[C@H]1OC(=O)[C@H](C)[C@@H](O[C@H]2C[C@@](C)(OC)[C@](O)(CNCC(C)C)[C@H](C)O2)[C@H](C)[C@@H](O[C@@H]2O[C@H](C)C[C@H](N(C)S(=O)(=O)Nc3ccc(C(F)(F)F)cc3)[C@H]2O)[C@](C)(O)C[C@@H](C)CN[C@H](C)[C@@H](O)[C@]1(C)O [Example B-85],9,26
CC[C@H]1OC(=O)[C@H](C)[C@@H](O[C@H]2C[C@@](C)(OC)[C@](O)(CNCc3ccncc3)[C@H](C)O2)[C@H](C)[C@@H](O[C@@H]2O[C@H](C)C[C@H](N(C)S(=O)(=O)Nc3ccc(C(F)(F)F)cc3)[C@H]2O)[C@](C)(O)C[C@@H](C)CN[C@H](C)[C@@H](O)[C@]1(C)O [Example B-89],9,23
CC[C@H]1OC(=O)[C@H](C)[C@@H](O[C@H]2C[C@@](C)(OC)[C@](O)(CNCc3ccccc3)[C@H](C)O2)[C@H](C)[C@@H](O[C@@H]2O[C@H](C)C[C@H](N(C)S(=O)(=O)Nc3ccc(C(F)(F)F)cc3)[C@H]2O)[C@](C)(O)C[C@@H](C)CN[C@H](C)[C@@H](O)[C@]1(C)O [Example B-90],8,26
